{"source": "patent US6566348B1", "about": "“Pesticides based on cyclic polysiloxanes” (Bayer Aktiengesellschaft, priority 1995, dated 2003)", "test": "Crystallizing out at low temperatures", "assay_type": "physicochemical", "data": [{"smiles": "C[Si]1(C)O[Si](C)(C)O[Si](C)(C)O[Si](C)(C)O[Si](C)(C)O1", "note": "[Decamethylcyclopentasiloxane, decamethylcyclopentasiloxane]", "values": [{"measurement": "stability at low temperatures", "value": "stable at low temperatures, without crystallizing out"}]}]}
